Source: patent US20090312280A1

Tests used:
[1] = system: MDA-MB-231 (Breast); assay: cell survival / MTT combination cytotoxicity; type: cell-based, human; details: IC50 cytotoxic agent alone / IC50 combination, Compound 1 at 8x EC50 (360 nM)
[2] = system: Colo205 (Colon); assay: cell survival / MTT combination cytotoxicity; type: cell-based, human; details: Colo205; IC50 cytotoxic agent alone / IC50 combination; Compound 1 at 8x EC50 (360 nM)
[3] = system: PC-3 (Prostate); assay: cell survival / MTT combination cytotoxicity; type: cell-based, human; details: PC-3; IC50 cytotoxic agent alone / IC50 combination; Compound 1 at 8x EC50 (360 nM)
[4] = system: HT29 (Colon); assay: cell survival / MTT combination cytotoxicity; type: cell-based, human; details: HT29; IC50 cytotoxic agent alone / IC50 combination; Compound 1 at 8x EC50 (360 nM)
[5] = system: K562 (Leukemia); assay: cell survival / MTT combination cytotoxicity; type: cell-based, human; details: IC50 cytotoxic agent alone / IC50 combination, Compound 1 at 4x EC50 (180 nM)
[6] = system: Colo205 human colon carcinoma xenografts; assay: in vivo chemopotentiation, Colo205 xenograft; parameters: species or system mice
Experimental: Experiments 1 to 39 were conducted in mice xenografts. Experiments 40-42 were conducted in rat xenografts. Specifically, irinotecan combination studies were conducted in HT29 and Colo205. Gemcitabine combination studies were conducted in Colo205. Docetaxel combination studies were conducted in Colo205.
Gemcitabine and irinotecan are DNA directed cytotoxics known to induce checkpoint activation and subsequent S/G2M-phase arrest. […] Docetaxel is an antimitotics where recent discoveries describe a novel function for CHK1 in the mitotic checkpoint.

[7] = Exp 18, docetaxel 30 mg/kg, Compound 1 30 mg/kg as printed, IP Q1w×3
[8] = Exp 19, docetaxel 30 mg/kg + Compound 1 7.5 mg/kg, IP simultaneously Q1w×3
[9] = Exp 20, docetaxel 30 mg/kg + Compound 1 15 mg/kg, IP simultaneously Q1w×3
[10] = Exp 21, docetaxel 30 mg/kg + Compound 1 30 mg/kg, IP simultaneously Q1w×3
[11] = Exp 22, docetaxel 15 mg/kg, Compound 1 15 mg/kg as printed, IP Q1w×3
[12] = Exp 23, docetaxel 15 mg/kg + Compound 1 15 mg/kg, IP simultaneously Q1w×3
[13] = Exp 24, docetaxel 15 mg/kg + Compound 1 30 mg/kg, IP simultaneously Q1w×3
[14] = Exp 25, docetaxel 15 mg/kg Q1w×3 + Compound 1 60 mg/kg, IP simultaneously, Compound 1 two cycles, total 120 mg/kg

Structure (SMILES): COc1cccc2c1C(=O)c1c(O)c3c(c(O)c1C2=O)C[C@@](O)(C(=O)CO)C[C@@H]3O[C@H]1C[C@H](N)[C@H](O)[C@H](C)O1 [Doxorubicin]
- PF50 (Potentiation Factor50) [1]: 2.25
- PF50 (Potentiation Factor50) [2]: 1.1
- PF50 (Potentiation Factor50) [3]: 1.5
- PF50 (Potentiation Factor50) [4]: 2.2
- PF50 (Potentiation Factor50) [5]: 1.1

Structure (SMILES): CC(=O)O[C@@]12CO[C@@H]1C[C@H](O)[C@@]1(C)C(=O)[C@H](O)C3=C(C)[C@@H](OC(=O)[C@H](O)[C@@H](NC(=O)OC(C)(C)C)c4ccccc4)C[C@@](O)([C@@H](OC(=O)c4ccccc4)[C@H]21)C3(C)C [Docetaxel]
- % TGI [6, 7]: 85%
- Growth delay [6, 7]: 54 days
- % TGI [6, 8]: 90%
- % poten TGI [6, 8]: 35%
- Growth delay [6, 8]: 53 days
- % TGI [6, 9]: 93%
- % TTP [6, 9]: 36%
- % poten TGI [6, 9]: 57%
- Growth delay [6, 9]: 68 days
- % TGI [6, 10]: 103%
- % TTP [6, 10]: 50%
- % poten TGI [6, 10]: 122%
- Growth delay [6, 10]: 74 days
- % TGI [6, 11]: 49%
- Growth delay [6, 11]: 4.75 days
- % TGI [6, 12]: 65%
- % TTP [6, 12]: 72%
- % poten TGI [6, 12]: 31%
- Growth delay [6, 12]: 19.75 days
- % TGI [6, 13]: 79%
- % TTP [6, 13]: 177%
- % poten TGI [6, 13]: 59%
- Growth delay [6, 13]: 41.5 days
- % TGI [6, 14]: 99%
- % TTP [6, 14]: 145%
- % poten TGI [6, 14]: 99%
- Growth delay [6, 14]: 35 days
